Test results reported in patent US20060160070A1, “Association-based epitome design” (Microsoft Corporation, priority 2004, published 2006).

Legend:
[1] = target: T1, HLA B*1501 (Homo sapiens, UniProt P01889, A329T/A93T/A95T/C349S/D201E/D98Y/E187L/E204Q/E69M/E70A/K202T/N87E/Q94N/R155S/R180W/S121R/S35A/S48A/V306I/V36M/Y140S/Y91S); assay: Multi-parametric analysis iScore; format: binding; parameters: scale not given here; details: index integrating t1/2 and ED50
T1 construct: purchased
Experimental: (§1) Multi-parametric analysis was performed to integrate the half-life (t½) and ED50 parameters in an index (iScore). The iScore (Table 13) reflects the capability of a peptide to reconstitute with MHC molecules in a stable complex, defining its overall level of binding.

[2] = target: T2, HLA B*0702 (Homo sapiens, UniProt P01889); assay: Multi-parametric analysis iScore; format: binding; parameters: scale not given here; details: index integrating t1/2 and ED50
T2 construct: purchased
Experimental: as §1

[3] = target: T3, HLA A*2402 (Homo sapiens, UniProt P04439, D101N/D140Y/D185E/E176V/E190D/F33S/G103R/G107R/I119L/I121M/I306V/K335N/L105A/L180Q/L300P/N151K/N90K/Q86E/Q94H/R106L/R138H/R89G/T104I/T345S/V100E/W191G/Y123F); assay: Multi-parametric analysis iScore; format: binding; parameters: scale not given here; details: index integrating t1/2 and ED50
Experimental: as §1

[4] = target: T4, HLA A*1101 (Homo sapiens, UniProt P04439, A114D/D185E/E176A/F33Y/L180Q/S129P/T187R); assay: Multi-parametric analysis iScore; format: binding; parameters: scale not given here; details: index integrating t1/2 and ED50
T4 construct: purchased
Experimental: as §1

[5] = target: T5, HLA B*0801 (Homo sapiens, UniProt P01889, A93T/A95T/D138N/E176V/E187T/K202T/Q94N/R180D/S35A/V36M/Y33D/Y91F); assay: Multi-parametric analysis iScore; format: binding; parameters: scale not given here; details: index integrating t1/2 and ED50
T5 construct: purchased
Experimental: as §1

[6] = target: T6, HLA A*0301 (Homo sapiens, UniProt P04439); assay: Multi-parametric analysis iScore; format: binding; parameters: scale not given here; details: index integrating t1/2 and ED50
T6 construct: purchased
Experimental: as §1

[7] = target: T7, HLA A*0101 (Homo sapiens, UniProt P04439, A114D/A174V/A182V/D101N/D185E/E176A/E190D/L180R/Q94H/R68K/S129P/T187R/V100A/V91M/W191G); assay: Multi-parametric analysis iScore; format: binding; parameters: scale not given here; details: index integrating t1/2 and ED50
T7 construct: purchased
Experimental: as §1

[8] = target: T8, HLA A*0201 (Homo sapiens, UniProt P04439, D140Y/D185E/D98H/E176V/E277Q/G131W/G231S/I119V/I121R/I166T/I218V/L300P/L318F/N151K/N90K/P208A/P217A/Q86G/Q94H/R138H/R169H/T345S); assay: Multi-parametric analysis iScore; format: binding; parameters: scale not given here; details: index integrating t1/2 and ED50
Experimental: as §1

[9] = target: T3, HLA A*2402; assay: ITOPIA off-rate assay; format: binding; details: 37° C., one-phase exponential decay
Experimental: (§2) Peptide binding, off-rate and affinity were measured according to the protocols described in the ITOPIA Epitope Discovery System Customer Guide. To conduct the experiments, ninety-six (96) micro-titer plates coated with MHC molecules representing the HLA alleles listed in Table 9 were used to identify candidate peptides. Determinations were performed in duplicate using an ELISA plate reader. The peptide binding assay used measures the ability of individual peptides to bind to the HLA molecules under standardized optimal binding conditions. The assay was performed for all the test peptides across the selected HLA alleles. The test peptides identified as “binders” were characterized further in terms of affinity and dissociation experiments. The off-rate assay used evaluates the dissociation of previously bound peptide at defined time points (expressed as the t1/2 value). The affinity assay used measures the relative binding affinities for the MHC molecules determined by incubating candidate peptides identified in the initial peptide binding assay at increasing concentrations (expressed as quantity of peptide needed to achieve 50% binding or ED50 value).
(§3) The peptides initially identified as binders were evaluated for stability based on their ability to remain bound to MHC molecules at 37° C. at time points 0, 0.5, 1, 1.5, 2, 4, 6 and 8 hours. […] The values obtained for each time point (in duplicate) are expressed (Table 11) as a percentage of the positive control. To calculate the t1/2 and goodness-of-fit, as measured by r^2, for each peptide, a one-phase exponential decay curve, with a plateau given equal to 0, was generated using […] PRISM software.

[10] = target: T8, HLA A*0201; assay: ITOPIA off-rate assay; format: binding; details: 37° C., one-phase exponential decay
Experimental: as §2, §3

[11] = target: T1, HLA B*1501; assay: ITOPIA peptide binding assay; details: 1.11×10^−4M of peptide
Experimental: as §2
(§4) The binding of the test peptides (Table 8) to the HLA molecules (Table 9) was performed at a concentration of 1.11×10^−4M of peptide under optimal, standardized test conditions. A control peptide was run in parallel on the same plate and at the same concentration as the test peptides. […] The level of binding is expressed as a percent of positive control peptide binding for each allele.

[12] = target: T2, HLA B*0702; assay: ITOPIA peptide binding assay; details: 1.11×10^−4M of peptide
Experimental: as §2, §4

[13] = target: T3, HLA A*2402; assay: ITOPIA peptide binding assay; details: 1.11×10^−4M of peptide
Experimental: as §2, §4

[14] = target: T4, HLA A*1101; assay: ITOPIA peptide binding assay; details: 1.11×10^−4M of peptide
Experimental: as §2, §4

[15] = target: T5, HLA B*0801; assay: ITOPIA peptide binding assay; details: 1.11×10^−4M of peptide
Experimental: as §2, §4

[16] = target: T6, HLA A*0301; assay: ITOPIA peptide binding assay; details: 1.11×10^−4M of peptide
Experimental: as §2, §4

[17] = target: T7, HLA A*0101; assay: ITOPIA peptide binding assay; details: 1.11×10^−4M of peptide
Experimental: as §2, §4

[18] = target: T8, HLA A*0201; assay: ITOPIA peptide binding assay; details: 1.11×10^−4M of peptide
Experimental: as §2, §4

[19] = target: T1, HLA B*1501; assay: ITOPIA off-rate assay; format: binding; details: 37° C., one-phase exponential decay
Experimental: as §2, §3

ALFYKLDVI [compound 158]
iScore [1]: 0
iScore [2]: 0
iScore [3]: 0.339
iScore [4]: 0
iScore [5]: 0
iScore [6]: 0
iScore [7]: 0
iScore [8]: 0.460
A*2402 t1/2 [9]: 1.1 h
A*0201 t1/2 [10]: 5.5 h
level of binding, percent of positive control peptide binding [11]: 3% of positive control
level of binding, percent of positive control peptide binding [12]: 3% of positive control
level of binding, percent of positive control peptide binding [13]: 99% of positive control
level of binding, percent of positive control peptide binding [14]: 1% of positive control
level of binding, percent of positive control peptide binding [15]: 5% of positive control
level of binding, percent of positive control peptide binding [16]: 14% of positive control
level of binding, percent of positive control peptide binding [17]: 1% of positive control
level of binding, percent of positive control peptide binding [18]: 62% of positive control

CSSNITGLI [compound 154]
iScore [1]: 0.112
iScore [2]: 0
iScore [3]: 0.038
iScore [4]: 0
iScore [5]: 0
iScore [6]: 0
iScore [7]: 0
iScore [8]: 0.114
B*1501 t1/2 [19]: 3.8 h
A*2402 t1/2 [9]: 1.5 h
A*0201 t1/2 [10]: 0.4 h
level of binding, percent of positive control peptide binding [11]: 40% of positive control
level of binding, percent of positive control peptide binding [12]: 5% of positive control
level of binding, percent of positive control peptide binding [13]: 29% of positive control
level of binding, percent of positive control peptide binding [14]: 1% of positive control
level of binding, percent of positive control peptide binding [15]: 6% of positive control
level of binding, percent of positive control peptide binding [16]: 0% of positive control
level of binding, percent of positive control peptide binding [17]: 5% of positive control
level of binding, percent of positive control peptide binding [18]: 44% of positive control

CSSNITGLL [compound 69]
iScore [1]: 0.067
iScore [2]: 0
iScore [3]: 0.016
iScore [4]: 0
iScore [5]: 0
iScore [6]: 0
iScore [7]: 0
iScore [8]: 0.081
B*1501 t1/2 [19]: 3.1 h
A*2402 t1/2 [9]: 1.1 h
A*0201 t1/2 [10]: 0.3 h
level of binding, percent of positive control peptide binding [11]: 30% of positive control
level of binding, percent of positive control peptide binding [12]: 5% of positive control
level of binding, percent of positive control peptide binding [13]: 26% of positive control
level of binding, percent of positive control peptide binding [14]: 1% of positive control
level of binding, percent of positive control peptide binding [15]: 4% of positive control
level of binding, percent of positive control peptide binding [16]: 0% of positive control
level of binding, percent of positive control peptide binding [17]: 4% of positive control
level of binding, percent of positive control peptide binding [18]: 37% of positive control

YNEWTLELL [compound 22]
iScore [1]: 0
iScore [2]: 0
iScore [3]: 0.071
iScore [4]: 0
iScore [5]: 0
iScore [6]: 0
iScore [7]: 0
iScore [8]: 0
A*2402 t1/2 [9]: 1.5 h
level of binding, percent of positive control peptide binding [11]: 0% of positive control
level of binding, percent of positive control peptide binding [12]: 2% of positive control
level of binding, percent of positive control peptide binding [13]: 35% of positive control
level of binding, percent of positive control peptide binding [14]: 1% of positive control
level of binding, percent of positive control peptide binding [15]: 3% of positive control
level of binding, percent of positive control peptide binding [16]: 0% of positive control
level of binding, percent of positive control peptide binding [17]: 0% of positive control
level of binding, percent of positive control peptide binding [18]: 7% of positive control
